These results are taken from patent US8487102B2, “Pyrrazolopyridine compounds as dual NK1/NK3 receptor antagonists” (Hoffmann-La Roche Inc., priority 2010, dated 2013).

One assay has as its target T1, human NK1 receptor (Homo sapiens, UniProt P25103).
T1 construct: expressed in transfected cells; host or cells: CHO cells (Semliki virus expression system), membrane suspension
Briefly: NK1 receptor binding assay, [3H]substance P displacement. The note with it: human NK1 receptors in CHO cells, [3H]substance P 0.6 nM.

The target of assay [1] is T2, Recombinant human NK3 (hNK3) receptor (Homo sapiens, UniProt P29371).
T2 construct: expressed in transfected cells; membrane preparations of the recombinant receptor
T2 sequence (P29371 1-465): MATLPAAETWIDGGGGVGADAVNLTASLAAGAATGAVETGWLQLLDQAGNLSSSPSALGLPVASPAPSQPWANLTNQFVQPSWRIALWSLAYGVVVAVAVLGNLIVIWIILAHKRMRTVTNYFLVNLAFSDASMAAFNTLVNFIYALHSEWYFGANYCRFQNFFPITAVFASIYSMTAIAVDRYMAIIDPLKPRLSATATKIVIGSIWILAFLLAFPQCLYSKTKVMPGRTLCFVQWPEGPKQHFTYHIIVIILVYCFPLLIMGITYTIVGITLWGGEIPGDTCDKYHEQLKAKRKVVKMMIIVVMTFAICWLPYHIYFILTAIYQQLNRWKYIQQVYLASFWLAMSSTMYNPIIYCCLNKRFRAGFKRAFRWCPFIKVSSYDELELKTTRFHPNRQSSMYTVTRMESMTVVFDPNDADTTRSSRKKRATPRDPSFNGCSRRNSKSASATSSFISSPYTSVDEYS
Briefly: NK3 receptor binding assay, [3H]SR142801 displacement. To be noted: hNK3 receptor membranes, [3H]SR142801 0.3 nM. As for the experimental part: Recombinant human NK3 (hNK3) receptor affinity was determined in a 96 well plate assay, using [^3H]SR142801 (final concentration 0.3 nM) to radiolabel the hNK3 receptor in the presence of 10 concentrations of competing compound or buffer. Non specific binding was determined using 10 μM SB222200. Assay buffer consisted of Tris-HCl (50 mM, pH 7.4), BSA (0.1%), MnCl2 (4 mM) and phosphoramidon (1 μM). Membrane preparations of hNK3 receptors (approximately 2.5 μg/well in a 96 well plate) were used to initiate the incubation for 90 min at room temperature. This assay was terminated by rapid filtration under vacuum through GF/C filters, presoaked for 90 min with PEI (0.3%), with 3×0.5 ml washes of ice-cold Tris buffer (50 mM, pH 7.4) containing 0.1% BSA. The radioactivity retained on the filters was measured by scintillation counting. All assays were performed in duplicate in at least two separate experiments.

T1 sequence (P25103 whole entry): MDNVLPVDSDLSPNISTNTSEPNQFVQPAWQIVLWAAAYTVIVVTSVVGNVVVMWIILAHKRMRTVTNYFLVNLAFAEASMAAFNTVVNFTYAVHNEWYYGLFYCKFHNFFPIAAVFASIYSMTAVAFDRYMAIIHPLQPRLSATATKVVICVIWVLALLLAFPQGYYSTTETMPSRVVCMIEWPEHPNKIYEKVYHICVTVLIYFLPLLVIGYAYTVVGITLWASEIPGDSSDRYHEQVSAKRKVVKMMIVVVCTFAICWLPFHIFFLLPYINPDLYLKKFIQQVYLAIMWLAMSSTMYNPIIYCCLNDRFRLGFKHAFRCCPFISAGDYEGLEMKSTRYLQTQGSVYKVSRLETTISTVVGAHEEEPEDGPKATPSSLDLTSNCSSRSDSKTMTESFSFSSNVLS

Turning to `CCn1ncc2c(-c3ccc(F)cc3C)c(N(C)C(=O)C(C)(C)c3cc(F)cc(C(F)(F)F)c3)cnc21` [Example 26, 2-(3-fluoro-5-trifloromethyl-phenyl)-N-[1-ethyl-4-(4-fluoro-2-methyl-phenyl)-1H-pyrazolo[3,4-b]pyridin-5-yl]-N-methyl-isobutyramide], the results for the inhibitory constant (Ki) (on human NK1 receptor; in assay [1]) were 4.2 nM and 94.2 nM, respectively.

On to `CCn1ncc2c(-c3cccc(Cl)c3)c(N(C)C(=O)C(C)(C)c3cc(C(F)(F)F)cc(C(F)(F)F)c3)cnc21` [Example 17, 2-(3,5-Bis-trifluoromethyl-phenyl)-N-[4-(3-chloro-phenyl)-1-ethyl-1H-pyrazolo[3,4-b]pyridin-5-yl]-N-methyl-isobutyramide], for which the inhibition constant Ki (as a rule, the dissociation constant of the complex between target and ligand, obtained from inhibition or displacement) at human NK1 receptor worked out at 4.2 nM; in assay [1], 355 nM.

In the case of `CCn1ncc2c(-c3ccccc3OC)c(N(C)C(=O)C(C)(C)c3cc(C(F)(F)F)cc(C(F)(F)F)c3)cnc21` [Example 15, 2-(3,5-Bis-trifluoromethyl-phenyl)-N-[1-ethyl-4-(2-methoxy-phenyl)-1H-pyrazolo[3,4-b]pyridin-5-yl]-N-methyl-isobutyramide], the inhibitory constant (Ki) at human NK1 receptor is 0.7 nM; in assay [1], 208 nM. At human NK1 receptor, `CCn1ncc2c(-c3cccnc3C)c(N(C)C(=O)C(C)(C)c3cc(C(F)(F)F)cc(C(F)(F)F)c3)cnc21` [Example 25, 2-(3,5-Bis-trifluoromethyl-phenyl)-N-[1-ethyl-4-(2-methyl-pyridin-3-yl)-1H-pyrazolo[3,4-b]pyridin-5-yl]-N-methyl-isobutyramide] displayed an inhibition constant Ki of 522 nM. Regarding `CCn1ncc2c(-c3ccccc3C)c(N(C)C(=O)C(C)(C)c3cc(C(F)(F)F)cc(C(F)(F)F)c3)cnc21` [Example 1, 2-(3,5-Bis-trifluoromethyl-phenyl)-N-(1-ethyl-4-o-tolyl-1H-pyrazolo[3,4-b]pyridin-5-yl)-N-methyl-isobutyramide], the results for the inhibition constant Ki (at human NK1 receptor; in assay [1]) were 1.2 nM and 32.7 nM, respectively. For `CC(=O)n1ncc2c(-c3ccc(F)cc3C)c(N(C)C(=O)C(C)(C)c3cc(C(F)(F)F)cc(C(F)(F)F)c3)cnc21` [Example 31, N-[1-Acetyl-4-(4-fluoro-2-methyl-phenyl)-1H-pyrazolo[3,4-b]pyridin-5-yl]-2-(3,5-bis-trifluoromethyl-phenyl)-N-methyl-isobutyramide] the same measures were 1.2 nM and 12.9 nM. For `CCn1ncc2c(-c3ccc(F)cc3Cl)c(N(C)C(=O)C(C)(C)c3cc(C(F)(F)F)cc(C(F)(F)F)c3)cnc21` [Example 19, 2-(3,5-Bis-trifluoromethyl-phenyl)-N-[4-(2-chloro-4-fluoro-phenyl)-1-ethyl-1H-pyrazolo[3,4-b]pyridin-5-yl]-N-methyl-isobutyramide] the same measures were 0.3 nM and 13.8 nM. The like results for `CCn1ncc2c(-c3ccccc3Cl)c(N(C)C(=O)C(C)(C)c3cc(C(F)(F)F)cc(C(F)(F)F)c3)cnc21` [Example 3, 2-(3,5-Bis-trifluoromethyl-phenyl)-N-[4-(2-chloro-phenyl)-1-ethyl-1H-pyrazolo[3,4-b]pyridin-5-yl]-N-methyl-isobutyramide] were, in that order, 0.6 nM and 22.9 nM.

With `Cc1cc(F)ccc1-c1c(N(C)C(=O)C(C)(C)c2cc(C(F)(F)F)cc(C(F)(F)F)c2)cnc2c1cnn2C(=O)C1CC1` [Example 33, 2-(3,5-Bis-trifluoromethyl-phenyl)-N-[1-cyclopropanecarbonyl-4-(4-fluoro-2-methyl-phenyl)-1H-pyrazolo[3,4-b]pyridin-5-yl]-N-methyl-isobutyramide], the values for the Ki (at human NK1 receptor; in assay [1]) were 1.6 nM and 9.9 nM, respectively.

For the compound `CCn1ncc2c(-c3cccc(Cl)c3Cl)c(N(C)C(=O)C(C)(C)c3cc(C(F)(F)F)cc(C(F)(F)F)c3)cnc21` [Example 18, 2-(3,5-Bis-trifluoromethyl-phenyl)-N-[4-(2,3-dichloro-phenyl)-1-ethyl-1H-pyrazolo[3,4-b]pyridin-5-yl]-N-methyl-isobutyramide], the Ki in assay [1] worked out at 45.3 nM. As for `CCn1ncc2c(-c3ccc(C#N)cc3)c(N(C)C(=O)C(C)(C)c3cc(C(F)(F)F)cc(C(F)(F)F)c3)cnc21` [Example 23, 2-(3,5-Bis-trifluoromethyl-phenyl)-N-[4-(4-cyano-phenyl)-1-ethyl-1H-pyrazolo[3,4-b]pyridin-5-yl]-N-methyl-isobutyramide], the values for the Ki (on human NK1 receptor; in assay [1]) were 4.9 nM and 979 nM, respectively. As for `Cc1cc(F)ccc1-c1c(N(C)C(=O)C(C)(C)c2cc(C(F)(F)F)cc(C(F)(F)F)c2)cnc2c1cnn2CC(=O)N1CCCC1` [Example 34, 2-(3,5-Bis-trifluoromethyl-phenyl)-N-[4-(4-fluoro-2-methyl-phenyl)-1-(2-oxo-2-pyrrolidin-1-yl-ethyl)-1H-pyrazolo[3,4-b]pyridin-5-yl]-N-methyl-isobutyramide], in assay [1], the Ki turned out to be 39.5 nM. For `CCn1ncc2c(-c3ccsc3Cl)c(N(C)C(=O)C(C)(C)c3cc(C(F)(F)F)cc(C(F)(F)F)c3)cnc21` [Example 24, 2-(3,5-Bis-trifluoromethyl-phenyl)-N-[4-(2-chloro-thiophen-3-yl)-1-ethyl-1H-pyrazolo[3,4-b]pyridin-5-yl]-N-methyl-isobutyramide], the Ki is 36 nM on human NK1 receptor and 0.7 nM in assay [1]. The like results for `CCn1ncc2c(-c3ccc(F)cc3F)c(N(C)C(=O)C(C)(C)c3cc(C(F)(F)F)cc(C(F)(F)F)c3)cnc21` [Example 8, 2-(3,5-Bis-trifluoromethyl-phenyl)-N-[4-(2,4-difluoro-phenyl)-1-ethyl-1H-pyrazolo[3,4-b]pyridin-5-yl]-N-methyl-isobutyramide] were, in that order, 1.7 nM and 483 nM. As to `CCn1ncc2c(-c3ccc(F)cc3OC)c(N(C)C(=O)C(C)(C)c3cc(C(F)(F)F)cc(C(F)(F)F)c3)cnc21` [Example 12, 2-(3,5-Bis-trifluoromethyl-phenyl)-N-[1-ethyl-4-(4-fluoro-2-methoxy-phenyl)-1H-pyrazolo[3,4-b]pyridin-5-yl]-N-methyl-isobutyramide], the figures for the Ki (on human NK1 receptor; in assay [1]) were 0.7 nM and 41.4 nM, respectively. The like results for `CCn1ncc2c(-c3ccccc3CO)c(N(C)C(=O)C(C)(C)c3cc(C(F)(F)F)cc(C(F)(F)F)c3)cnc21` [Example 20, 2-(3,5-Bis-trifluoromethyl-phenyl)-N-[1-ethyl-4-(2-hydroxymethyl-phenyl)-1H-pyrazolo[3,4-b]pyridin-5-yl]-N-methyl-isobutyramide] were, in that order, 1.6 nM and 209 nM.

On to `Cc1cc(F)ccc1-c1c(N(C)C(=O)C(C)(C)c2cc(C(F)(F)F)cc(C(F)(F)F)c2)cnc2[nH]ncc12` [Example 28, 2-(3,5-Bis-trifluoromethyl-phenyl)-N-[4-(4-fluoro-2-methyl-phenyl)-1H-pyrazolo[3,4-b]pyridin-5-yl]-N-methyl-isobutyramide], for which the Ki on human NK1 receptor came to 1.6 nM; in assay [1] it was 27.3 nM.

Regarding `CCn1ncc2c(-c3ccc(OC)cc3C)c(N(C)C(=O)C(C)(C)c3cc(C(F)(F)F)cc(C(F)(F)F)c3)cnc21` [Example 16, 2-(3,5-Bis-trifluoromethyl-phenyl)-N-[1-ethyl-4-(4-methoxy-2-methyl-phenyl)-1H-pyrazolo[3,4-b]pyridin-5-yl]-N-methyl-isobutyramide], the inhibition constant Ki stood at 8.6 nM on human NK1 receptor and 373 nM in assay [1].

As for `CCn1ncc2c(-c3ccc(F)cc3C)c(N(C)C(=O)C(C)(C)c3cc(C(F)(F)F)cc(C(F)(F)F)c3)cnc21` [Example 2, 2-(3,5-Bis-trifluoromethyl-phenyl)-N-[1-ethyl-4-(4-fluoro-2-methyl-phenyl)-1H-pyrazolo[3,4-b]pyridin-5-yl]-N-methyl-isobutyramide], the Ki at human NK1 receptor stood at 1.1 nM; in assay [1], 25.7 nM. For `CCn1ncc2c(-c3ccc(F)cc3C)c(N(C)C(=O)C(C)(C)c3cccc(C(F)(F)F)c3)cnc21` [Example 30, N-[1-Ethyl-4-(4-fluoro-2-methyl-phenyl)-1H-pyrazolo[3,4-b]pyridin-5-yl]-N-methyl-2-(3-trifluoromethyl-phenyl)-isobutyramide] the same measures were 12.4 nM and 875 nM. Consider `Cc1cc(F)ccc1-c1c(N(C)C(=O)C(C)(C)c2cc(C(F)(F)F)cc(C(F)(F)F)c2)cnc2c1cnn2CC(=O)N(C)C` [Example 35, 2-(3,5-Bis-trifluoromethyl-phenyl)-N-[1-dimethylcarbamoylmethyl-4-(4-fluoro-2-methyl-phenyl)-1H-pyrazolo[3,4-b]pyridin-5-yl]-N-methyl-isobutyramide], for which the inhibition constant Ki in assay [1] was determined as 93.9 nM.
